For 2 molecules, effect on displacement results are on record in patent US5274080A, “Monospecific antibodies useful in evaluating inhibition of polymorphonuclear leukocyte elastase by N-substituted azetidinones” (Merck & Co., Inc., priority 1991, dated 1993).

In this test the test system is antibody R674. Briefly: Radioimmune assay: displacement of tritium labeled reactivation product from antibody R674. Type of test: binding, rabbit. Conditions: up to 10 μM (the highest concentration tested).

Experimental: Non-antibody-bound radioactive isotope was removed from the reaction mixture by its absorption onto dextran-coated activated charcoal. […] The activated charcoal was then suspended to 3% (w/v) in PBS dextran and allowed to stand overnight, washed once again in PBS dextran and resuspended to 3% (w/v) in PBS dextran and stored at 4° C. Immediately before use in the assay, the dextran-coated activated charcoal was diluted 10-fold in DULBECCO's PBS and 1 ml was added to each assay tube. […] The supernatant fluid was decanted into 9 ml of AQUASOL-2 scintillation fluid and radioactivity counted in a beta-counter. Each assay contains charcoal free controls, to which 1 ml PBS was added, for determination of total counts (BO), and antibody free controls for determination of non-specific binding. Percent specific binding was determined by subtracting the value for non-specific binding from the value of total antiserum binding and then dividing by the total radioactivity added.
Sensitivity of the antisera R674 (2nd bleed) was determined in the above RIA. The antiserum was diluted in PET/GEL buffer (1:12,000 final dilution in the 200 μl assay volume) as described above so that it binds 20-30% of the total radioactivity added. The same diluted stock was then used for all assay tubes within the same assay. […] The assay was set up on a competition basis. […]

For `NC(N)=O` [Urea], the effect on displacement result is recorded as “without effect”.
On to `N=C(N)NCCC[C@H](N)C(=O)O` [arginine], for which the effect on displacement result is given as “without effect”.
